Where two headings read alike, the source gives them in different places.
What was measured:
[1] = test system: J774 cells infected with P. aeruginosa strain PAK; test: cells; type: cell-based, Pseudomonas aeruginosa; settings: for Anti-virulence efficacy in the infection assay (in words): 25-200 µM; for viability at 25 µM / viability at 50 µM / viability at 100 µM / viability at 200 µM: Pseudomonas aeruginosa; for viability at 25 µM: J774, compound 25 µM; for viability at 50 µM: J774, compound 50 µM; for viability at 100 µM: J774, compound 100 µM; for viability at 200 µM: J774, compound 200 µM
Method: The cell viability assay was performed essentially as described before. J774 cells were seeded in 96-well micro-titer plates (Nunc), 100 µL/well, to a final number of 50,000 cells/well in Dulbecco’s modified Eagle’s medium (DMEM) with glutamax (Merck) supplemented with 10% fetal calf serum (FCS) and 3 µg/mL gentamicin and incubated for 16-18 h. Overnight cultures of the P. aeruginosa strains PAK and PAKpcrV [10] were grown in Luria Broth (LB) on a rotary shaker at 220 rpm at 37 °C. Prior to infection, the bacteria were diluted 1:10 in DMEM + glutamax and incubated for 1 h at 37 °C (shaking). The J774 cells were washed once with PBS, then 30 µL of DMEM with glutamax and 10% FCS supplemented with the potential binders at concentrations of 50, 100, 200, and 400 µM were added to the wells in triplicates. The infection was initiated by adding 30 µL of the diluted bacterial solutions (where the OD600 had been diluted to 0.0008) to each well to initiate infection. This infection results in a final bacterial concentration of OD600 = 0.0004 and a multiplicities of infection (MOI) of approximately 8, with final concentrations of the compounds at 25, 50, 100, and 200 µM in 60 µL of DMEM + glutamax and 5% FCS. In the primary screening, the compounds were run at one concentration (100 µM) in duplicates. As an infection control, the wild-type strain PAK with 1% DMSO was added, and as a positive control, PAKpcrV with 1% DMSO was added into four wells each. After 3 h and 30 min, 10 µL of UptiBlue Viable Cell Counting Kit (Interchime, France) was added to all wells. The infection was followed under the light microscope and the fluorescence (excitation 535 nm and emission 595 nm) was measured at 4, 5, and 6 h in a microplate reader (Synergy™ H4, Biotek). The results were calculated as percentage of living cells compared to uninfected control, where the uninfected control was set to 100% living cells and the infected control was set to 0% living cells. As a control, compounds were added to uninfected cells in a parallel experiment and viability was calculated as above to screen for cell toxicity. A compound was considered toxic if the viability was <80% of the uninfected control after 6 h of incubation and if a visual change of cell morphology was observed by microscopy. Z’ was calculated for each plate to ensure good quality throughout the screening. Only results from plates with a Z’ > 0.4 were counted. Standard deviation was calculated with Gaussian approximation when appropriate and shown as error bars in Figure 3C and Figure 4A.
The T3SS is important for P. aeruginosa infection of eukaryotic cells, and a T3SS activator mutant or a mutant lacking the T3SS tip protein PcrV are not able to infect eukaryotic cells. The macrophage cell line, J774, was infected with the wild-type P. aeruginosa strain PAK, and the potential PcrV binders were added to the wells at a final concentration of 100 µM to screen for inhibition of infection. The T3SS-mediated cytotoxic effect on the eukaryotic cells was measured by using a viability staining method (Uptiblue, Interchim), and the results were measured after 4, 5, and 6 h of infection. The pcrV-mutant (PAKpcrV), which is not able to infect macrophages due to deletion of the PcrV protein, was used as a control.

P. aeruginosa strain PAK = test: Bacterial toxicity (growth) assay, OD600; type: cell-based, Pseudomonas aeruginosa; settings: 200, 100, 50 and 25 µM; OD600 for 8 h
Method: Overnight culture of the P. aeruginosa strain PAK was diluted in LB (Luria Broth) to an OD600 of 0.2. The bacteria were added into microtiter plates, and 25, 50, 100, and 200 µM of the potential binders were added in triplicates to the bacteria with a final concentration of 1% DMSO. […] Wells with 1% DMSO without substance were used as positive controls.

PcrV = PcrV (Pseudomonas aeruginosa, UniProt G3XD49); test: 1H NMR relaxation-edited binding experiment; settings: compound 100 µM, PcrV 10 µM
Method: A solution containing 100 µM of the small molecule was prepared from 20 mM stock solution of the tested compound in DMSO and diluted in PBS (pH 7.4) containing trimethylsilyl propanoic acid (TMSP) as an internal standard. This solution was then split into halves and used for preparation of the test and the reference samples as follows: the test sample was prepared by adding 24 µL of 0.211 mM PcrV protein stock solution, resulting in a final protein concentration of 10 µM, whereas the reference sample was prepared by adding the corresponding volume of PBS buffer only before being transferred to 5-mm NMR tubes. The relaxation-edited experiments shown in Figure 3D were recorded on Bruker 600 MHz, and data were acquired at 298 K. Data from 256 scans were accumulated, and a Carr-Purcell-Meiboom-Gill (cpmg) spin-lock of 200 ms was used. Excitation sculpture was applied for water suppression.
To confirm the binding data obtained from the SPR, a secondary qualitative label-free binding experiment based on ^1H-NMR was performed.

[2] = uninfected control = 100%, infected control = 0%, read-out: Viability Assay (% of Uninfected Control) 25 µM
[3] = uninfected control = 100%, infected control = 0%, read-out: Viability Assay (% of Uninfected Control) 50 µM
[4] = uninfected control = 100%, infected control = 0%, read-out: Viability Assay (% of Uninfected Control) 100 µM
[5] = uninfected control = 100%, infected control = 0%

PcrV, sequence (G3XD49 entry or part of it): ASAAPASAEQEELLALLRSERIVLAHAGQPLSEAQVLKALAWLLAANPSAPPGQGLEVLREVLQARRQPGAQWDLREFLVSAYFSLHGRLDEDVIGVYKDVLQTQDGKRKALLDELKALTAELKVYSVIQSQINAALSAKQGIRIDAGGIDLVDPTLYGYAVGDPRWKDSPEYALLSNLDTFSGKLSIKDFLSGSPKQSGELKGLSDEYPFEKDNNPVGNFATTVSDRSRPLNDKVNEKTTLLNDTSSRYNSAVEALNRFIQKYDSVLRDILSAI

Cc1c(Br)ccc(OC[C@@H]2C[C@H]2C(=O)O)c1C (relative stereo) [Compound 32]
Anti-virulence efficacy in the infection assay (in words) [1]: as efficacious as or better than H1 | viability at 25 µM [1, 2]: 22% | viability at 50 µM [1, 3]: 21% | viability at 100 µM [1, 4]: 33% | viability at 200 µM [1, 5]: ≤ 38% | Effect on bacterial growth (P. aeruginosa strain PAK): without affecting bacterial growth

Cc1c(Br)ccc(OC[C@@H]2C[C@@H]2C(=O)O)c1C (relative stereo) [Compound 33]
Anti-virulence efficacy in the infection assay (in words) [1]: as efficacious as or better than H1 | viability at 25 µM [1, 2]: 24% | viability at 50 µM [1, 3]: 24% | viability at 100 µM [1, 4]: 38% | viability at 200 µM [1, 5]: ≤ 38% | Effect on bacterial growth (P. aeruginosa strain PAK): without affecting bacterial growth

Cc1c(Br)ccc(OCCCC(=O)O)c1C [Compound H1]
viability at 25 µM ([1]; one representative experiment, read-out: Macrophage Viability, wt+25 µM (Figure 3C)): -4% | viability at 25 µM [1, 2]: 12% | viability at 50 µM ([1]; one representative experiment, read-out: Macrophage Viability, wt+50 µM (Figure 3C)): 19% | viability at 50 µM [1, 3]: 20% | viability at 100 µM ([1]; one representative experiment, read-out: Macrophage Viability, wt+100 µM (Figure 3C)): 42% | viability at 100 µM [1, 4]: 27% | viability at 200 µM [1, 5]: 28% | 1H NMR binding to PcrV (qualitative) (PcrV): signal reduction

From PMC7824769, “Identification of Small Molecules Blocking the Pseudomonas aeruginosa Type III Secretion System Protein PcrV” (Biomolecules, 2021)
